Assays:
COX II = target: T1, COX II (Homo sapiens, UniProt P35354); test: radiometric assay, COX II inhibition (human recombinant, baculovirus expressed, partially purified); type: biochemical; design: A 1.8 Kb DNA fragment containing the coding region of human COX II was generated by PCR; made in house; host or cells: Sf9 insect cells, baculovirus; conditions: radiometric assay, human recombinant baculovirus expressed enzyme; read-out: COX II IC50 (Table 2)
T1 sequence (P35354 18-604): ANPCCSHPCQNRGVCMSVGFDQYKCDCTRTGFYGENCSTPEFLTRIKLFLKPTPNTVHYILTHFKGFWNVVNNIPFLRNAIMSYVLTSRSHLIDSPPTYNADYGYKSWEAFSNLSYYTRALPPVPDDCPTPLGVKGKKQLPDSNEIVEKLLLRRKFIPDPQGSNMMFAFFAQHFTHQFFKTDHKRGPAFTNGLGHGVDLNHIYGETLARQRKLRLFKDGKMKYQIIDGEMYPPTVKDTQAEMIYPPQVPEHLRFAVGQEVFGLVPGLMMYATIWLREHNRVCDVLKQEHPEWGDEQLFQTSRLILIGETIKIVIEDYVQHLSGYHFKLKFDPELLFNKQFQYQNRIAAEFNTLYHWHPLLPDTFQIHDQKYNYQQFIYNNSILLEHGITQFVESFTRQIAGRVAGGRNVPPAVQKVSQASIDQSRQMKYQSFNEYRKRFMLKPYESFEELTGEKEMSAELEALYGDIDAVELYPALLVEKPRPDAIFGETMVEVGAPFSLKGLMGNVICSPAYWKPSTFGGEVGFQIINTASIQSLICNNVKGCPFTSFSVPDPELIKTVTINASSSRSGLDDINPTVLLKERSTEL
Experimental: (§1) Human prostaglandin G/H synthase I and II ("COX I" and "COX II") were expressed in the baculovirus expression system and purified to high levels.
(§2) As described above, human recombinant COX I and COX II were cloned and expressed in a baculovirus system. Partially purified COX I and COX II enzymes were used for screening compounds for their ability to inhibit COX I and COX II activity, as described below.
(§3) Compound (16), in 2 μl DMSO, and control samples (carrier vehicles only) were mixed with COX I or COX II samples (e.g. fractions from the chromatography columns) in polypropylene tubes and preincubated with 2 mM phenol for 5 minutes and then with 1 μM hematin for an additional 5 minutes. The 150 μl reaction mixture consisted of 50 mM Tris --HCl, pH 7.9, 2 mM EDTA, 10% glycerol, 200 μM phenol, 1 μM hematin, 1-25 μl sample and 20 μM 1-[^14 C] arachidonate (80.000-100.000 cpm/tube). After 45 seconds at room temperature, the reaction was terminated by adding 200 μl of 2N HCl and 750 μl water. An aliquot (950 μl) of the reaction mixture was loaded onto a 1 ml C~ Sep-Pak (J. T. Baker, Phillipsburg, N.J.) which had been previously washed with 2-3 ml methanol and equilibrated with 5-6 ml distilled water. Oxygenated products were quantitatively eluted with 3 ml of acetonitrile, H2 O and acetic acid (50:50:0.1, v/v) and the radioactivity in the eluate determined in a scintillation counter.
(§4) Human recombinant 10 min incubation with Compound (16)
(§5) baculovirus 45 sec incubation with 20 μM AA
(§6) partially purified Separation of radioactive products

COX I = COX I (Homo sapiens, UniProt P23219); test: radiometric assay, COX I inhibition (human recombinant, baculovirus expressed, partially purified); type: biochemical; design: A 2 Kb fragment containing the coding region of COX I; made in house; host or cells: Sf9 insect cells, baculovirus (cDNA from Oxford Biomedical Research); conditions: radiometric assay, human recombinant baculovirus expressed enzyme; read-out: COX I IC50 (Table 2)
Experimental: as §1, §2, §3, §4, §5, §6

COX I, sequence (P23219 24-599): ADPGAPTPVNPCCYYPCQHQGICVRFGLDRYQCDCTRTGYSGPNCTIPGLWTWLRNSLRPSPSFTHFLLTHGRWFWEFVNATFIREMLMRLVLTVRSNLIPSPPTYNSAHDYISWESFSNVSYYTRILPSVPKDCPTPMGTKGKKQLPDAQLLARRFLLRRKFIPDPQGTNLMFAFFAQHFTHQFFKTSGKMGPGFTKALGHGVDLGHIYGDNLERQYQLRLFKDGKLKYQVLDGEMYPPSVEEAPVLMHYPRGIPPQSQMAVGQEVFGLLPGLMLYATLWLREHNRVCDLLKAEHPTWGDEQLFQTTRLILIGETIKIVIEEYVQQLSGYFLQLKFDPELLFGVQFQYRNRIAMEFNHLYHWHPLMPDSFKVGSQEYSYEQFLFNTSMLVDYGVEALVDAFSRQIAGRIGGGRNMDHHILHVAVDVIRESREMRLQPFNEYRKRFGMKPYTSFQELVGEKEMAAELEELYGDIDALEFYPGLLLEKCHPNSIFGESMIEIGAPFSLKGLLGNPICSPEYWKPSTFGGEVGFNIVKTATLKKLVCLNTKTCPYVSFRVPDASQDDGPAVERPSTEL

Structure (SMILES)	IC50 (COX II) [µM]	IC50 (COX I) [µM]
Cc1cc(Cc2ccc(=O)n(CCO)n2)n(C)c1C(=O)c1ccc(Cl)cc1 [Compound 118, 6-[5-(4-chloro-benzoyl)-1,4,-dimethyl-1H-pyrrol-2-ylmethyl]-2-(2-hydroxy-ethyl)-2H-pyridazin-3-one]	0.8	76
Cc1cc(Cc2ccc(=O)n(CC(N)=O)n2)n(C)c1C(=O)c1ccc(Cl)cc1 [Compound 120, 2-{3-[5-(4-chloro-benzoyl)-1,4,-dimethyl-1H-pyrrol-2-ylmethyl]-6-oxo-6H-pyridazin-1-yl}-acetamide]	0.8	8.9
COCCn1nc(Cc2cc(C)c(C(=O)c3ccc(Cl)cc3)n2C)ccc1=O [Compound 124, 6-[5-(4-chloro-benzoyl)-1,4,-dimethyl-1H-pyrrol-2-ylmethyl]-2-(2-methoxy-ethyl)-2H-pyridazin-3-one]	0.54	94
CNC(=O)Cn1nc(Cc2cc(C)c(C(=O)c3ccc(Cl)cc3)n2C)ccc1=O [Compound 125, 2-{3-[5-(4-chloro-benzoyl)-1,4,-dimethyl-1H-pyrrol-2-ylmethyl]-6-oxo-6H-pyridazin-1-yl}--N-methyl acetamide]	1.6	< 10
C#CCn1nc(Cc2cc(C)c(C(=O)c3ccc(Cl)cc3)n2C)ccc1=O [Compound 126, 6-[5-(4-chloro-benzoyl)-1,4-dimethyl-1H-pyrrol-2-ylmethyl]-2-prop-2-ynyl-2H-pyridazin-3-one]	0.97	61.4
C=CCn1nc(Cc2cc(C)c(C(=O)c3ccc(Cl)cc3)n2C)ccc1=O [Compound 127, 2-allyl-6-[5-(4-chloro-benzoyl)-1,4-dimethyl-1H-pyrrol-2-ylmethyl]-2H-pyridazin-3one]	0.67	57
Cc1ccc(C(=O)c2cc(Br)c(Cc3ccc(=O)[nH]n3)n2C)cc1 [Compound 130, 6-[3-bromo-1-methyl-5-(4-methyl-benzoyl)-1H-pyrrol-2-ylmethyl]-2H-pyridazin-3-one]	0.58	> 100
CC(=O)OCCn1nc(Cc2cc(C)c(C(=O)c3ccc(Cl)cc3)n2C)ccc1=O [Compound 135, acetic acid 2-{3-[5-(4-chloro-benzoyl)-1,4,-dimethyl-1H-pyrrol-2-ylmethyl]-6-oxo-6H-pyridazin-1-yl}ethyl ester]	0.35	52
Cc1cc(Cc2ccc(=O)n(CCNS(C)(=O)=O)n2)n(C)c1C(=O)c1ccc(Cl)cc1 [Compound 136, N-(2-{3-[5-(4-chloro-benzoyl)-1,4,-dimethyl-1H-pyrrol-2-ylmethyl]-6-oxo-6H-pyridazin-1-yl}-ethyl)-methanesulfonamide]	3.06	829
Cc1cc(Cc2ccc(=O)n(CCCO)n2)n(C)c1C(=O)c1ccc(Cl)cc1 [Compound 140, 6-[5-(4-chloro-benzoyl)-1,4,-dimethyl-1H-pyrrol-2-ylmethyl]-2-(3-hydroxy-1-propyl)-2H-pyridazin-3-one]	0.53	48
Cc1cc(Cc2ccc(=O)[nH]n2)n(C)c1C(=O)c1ccc(F)cc1 [Compound 142, 6-[1,4-dimethyl-5-(4-fluoro-benzoyl)-1H-pyrrol-2-ylmethyl]-2H-pyridazin-3-one]	4.16	67
Cc1cc(Cc2ccc(=O)[nH]n2)n(C)c1C(=O)c1cccs1 [Compound 144, 6-[1,4-dimethyl-5-(thienyl-2-carbonyl)-1H-pyrrol-2-ylmethyl]-2H-pyridazin-3-one]	0.59	1
Cc1cc(Cc2ccc(=O)n(CCC#N)n2)n(C)c1C(=O)c1ccc(Cl)cc1 [Compound 145, 6-[5-(4-chloro-benzoyl)-1,4,-dimethyl-1H-pyrrol-2-ylmethyl]-2-(2-cyano-ethyl)-2H-pyridazin-3-one]	0.91	85
Cc1cc(Cc2ccc(=O)n(CO)n2)n(C)c1C(=O)c1ccc(Cl)cc1 [Compound 153, 6-[5-(4-chloro-benzoyl)-1,4,-dimethyl-1H-pyrrol-2-ylmethyl]-2-(hydroxy-methyl)-2H-pyridazin-3-one]	0.54	> 100
CC[C@H](C)NC(=O)Cn1nc(Cc2cc(C)c(C(=O)c3ccc(Cl)cc3)n2C)ccc1=O [Compound 157, S--N-sec-butyl-2-{3-[5-(4-chloro-benzoyl)-1,4,-dimethyl-1H-pyrrol-2-ylmethyl]-6-oxo-6H-pyridazin-1-yl}-acetamide]	1.63	24.4
CC[C@@H](C)NC(=O)Cn1nc(Cc2cc(C)c(C(=O)c3ccc(Cl)cc3)n2C)ccc1=O [Compound 158, R--N-sec-butyl-2-{3-[5-(4-chloro-benzoyl)-1,4,-dimethyl-1H-pyrrol-2-ylmethyl]-6-oxo-6H-pyridazin-1-yl}-acetamide]	0.68	3.2

These reach a lower IC50 (COX II). Values come first.

IC50 (COX II) [µM]	IC50 (COX I) [µM]	Structure (SMILES)
0.23	6.3	Cc1cc(Cc2ccc(=O)n(Cc3ccccc3)n2)n(C)c1C(=O)c1ccc(Cl)cc1 [Compound 121, 2-benzyl-6-[5-(4-chloro-benzoyl)-1,4,-dimethyl-1H-pyrrol-2-ylmethyl]-2H-pyridazin-3-one]
0.063	0.074	Cc1cc(Cc2ccc(=O)n(CC#N)n2)n(C)c1C(=O)c1ccc(Cl)cc1 [Compound 122, 6-[5-(4-chloro-benzoyl)-1,4,-dimethyl-1H-pyrrol-2-ylmethyl]-2-(cyano-methyl)-2H-pyridazin-3-one]
< 0.03	3.5	Cc1cc(Cc2ccc(=O)n(CCF)n2)n(C)c1C(=O)c1ccc(Cl)cc1 [Compound 123, 6-[5-(4-chloro-benzoyl)-1,4-dimethyl-1H-pyrrol-2-ylmethyl]-2-(2-fluoroethyl)-2H-pyridazin-3-one]
0.067	3.4	Cc1cc(Cc2ccc(=O)n(Cc3ccc(F)cc3)n2)n(C)c1C(=O)c1ccc(Cl)cc1 [Compound 129, 6-[5-(4-chloro-benzoyl)-1,4,-dimethyl-1H-pyrrol-2-ylmethyl]-2-(4-fluorobenzyl)-2H-pyridazin-3-one]
0.12	5.3	Cc1cc(Cc2ccc(=O)n(CCCl)n2)n(C)c1C(=O)c1ccc(Cl)cc1 [Compound 131, 6-[5-(4-chloro-benzoyl)-1,4-dimethyl-1H-pyrrol-2-ylmethyl]-2-(2-chloroethyl)-2H-pyridazin-3-one]
0.07	3.7	Cc1cc(Cc2ccc(=O)n(Cc3ccc(Cl)cc3)n2)n(C)c1C(=O)c1ccc(Cl)cc1 [Compound 133, 6-[5-(4-chloro-benzoyl)-1,4,-dimethyl-1H-pyrrol-2-ylmethyl]-2-(4-chlorobenzyl)-2H-pyridazin-3-one]
0.125	4.9	Cc1cc(Cc2cc(C)c(=O)[nH]n2)n(C)c1C(=O)c1ccc(Cl)cc1 [Compound 141, 6-[5-(4-chloro-benzoyl)-1,4-dimethyl-1H-pyrrol-2-ylmethyl]-4-methyl-2H-pyridazin-3-one]
< 0.1	3.8	Cc1cccc(C)c1Cn1nc(Cc2cc(C)c(C(=O)c3ccc(Cl)cc3)n2C)ccc1=O [Compound 151, 6-[5-(4-chloro-benzoyl)-1,4,-dimethyl-1H-pyrrol-2-ylmethyl]-2-(2,6-dimethylbenzyl)-2H-pyridazin-3-one]
0.14	10	Cc1cc(Cc2ccc(=O)n(Cc3c(Cl)cccc3Cl)n2)n(C)c1C(=O)c1ccc(Cl)cc1 [Compound 152, 6-[5-(4-chloro-benzoyl)-1,4,-dimethyl-1H-pyrrol-2-ylmethyl]-2-(2,6-dichlorobenzyl)-2H-pyridazin-3-one]

From patent US5622948A, “Pyrrole pyridazine and pyridazinone anti-inflammatory agents” (Syntex (U.S.A.) Inc., priority 1994, dated 1997)
